Read-outs that look alike come from different tables or passages of the source.
Experiments:
[1] = tested on: adipocytes humains matures; assay: Lipolysis: glycerol released by mature adipocytes (AdipoLyze Detection Assay); type: cell-based; details: Adipocyte, read-out: augmentation de la quantité de glycérol secrété par les adipocytes
Excerpt: Les préadipocytes primaires sous-cutanés humains fournis par Lonza ont été mis en culture (10 000 cellules/puits dans des plaques de 96 puits) dans un milieu de croissance (PGM-2, Lonza, PT-9502) pendant une nuit. A J1, les cellules ont été mises dans le milieu de différenciation pendant 12 jours pour acquérir les caractéristiques des adipocytes matures. […]

Sirt1 = molecular target: T1, Sirt1 (Homo sapiens, UniProt Q96EB6); assay: HTRF SIRT1 Assay (Cisbio): enzymatic activity of purified Sirt1; type: biochemical; details: 0.5 h; at about 2,5 µM (1 µg/ml); vs enzyme without compound; read-out: % d'augmentation de l'activité de Sirt1
T1 construct: purchased Cisbio
T1 sequence (Q96EB6 1-747): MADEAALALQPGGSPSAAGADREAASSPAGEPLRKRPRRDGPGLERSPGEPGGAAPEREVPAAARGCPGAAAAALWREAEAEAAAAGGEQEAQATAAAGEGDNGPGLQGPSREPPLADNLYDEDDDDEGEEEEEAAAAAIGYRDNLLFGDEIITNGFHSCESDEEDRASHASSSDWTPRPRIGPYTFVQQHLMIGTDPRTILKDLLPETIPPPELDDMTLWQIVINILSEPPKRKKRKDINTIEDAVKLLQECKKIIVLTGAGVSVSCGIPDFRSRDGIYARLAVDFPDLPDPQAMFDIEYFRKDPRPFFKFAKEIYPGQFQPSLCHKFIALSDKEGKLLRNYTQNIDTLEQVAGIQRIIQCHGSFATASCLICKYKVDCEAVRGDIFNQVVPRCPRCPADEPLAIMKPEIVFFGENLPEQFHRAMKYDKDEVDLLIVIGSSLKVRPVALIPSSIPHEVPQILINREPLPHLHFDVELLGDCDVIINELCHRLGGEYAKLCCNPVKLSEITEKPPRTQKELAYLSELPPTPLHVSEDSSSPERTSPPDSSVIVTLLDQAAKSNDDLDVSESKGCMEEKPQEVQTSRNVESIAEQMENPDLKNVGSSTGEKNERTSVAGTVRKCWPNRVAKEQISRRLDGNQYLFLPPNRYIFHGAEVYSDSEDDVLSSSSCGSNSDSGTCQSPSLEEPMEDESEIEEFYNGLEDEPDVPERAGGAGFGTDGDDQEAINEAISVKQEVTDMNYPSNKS
Experimental: L'activité enzymatique de Sirt1 a été évaluée à l'aide du kit «HTRF^R SIRT1 Assay » vendu par la Société Cisbio. Lors de ces expériences, l'enzyme purifiée a été incubée à température ambiante en présence du NAD (cofacteur) de son substrat acétylé et du composé à tester utilisé aux concentrations variant de 0,24 µM à 280 µM. « SIRT1 Activator 3 », un activateur commercial de Sirt1 a été utilisé comme un contrôle positif. Après 30 min d'incubation, la réaction enzymatique est arrêtée et la quantité de substrat acétylé restante est évaluée à l'aide d'un anticorps spécifique.
Une augmentation de l'activité enzymatique de Sirt1 en présence des composés décrits s'est traduite par une diminution de la quantité d'anticorps capable de se fixer sur le substrat et donc par une diminution de l'émission de fluorescence qui en résulte, comparé à la valeur obtenue avec l'enzyme seule. Les résultats sont exprimés en % d'augmentation de l'activité de Sirt1 par rapport à celle obtenue avec l'enzyme sans ajout des composés.

[2] = 50 µM, mature adipocytes treated 72h, culture supernatant

Compound | activation at 50 µM [1, 2] [%] | activation at 2.5 µM (Sirt1) [%] | activation at 50 µM ([1]; 72 h) [%]
CC(=O)N[C@H]1CC[C@@]2(C)C(=CC[C@H]3[C@@H]4CC[C@H]([C@H](C)NC(C)=O)[C@@]4(COC(C)=O)CC[C@@H]32)C1 (single isomer, unassigned; diac) [C3, Acétatede 3 β, 20 α-diacétamido-pregn-5-en-18-ol] | 18 | – | –
CC(=O)N(C)[C@H]1CC[C@@]2(C)C(=CC(=O)[C@H]3[C@@H]4CC[C@@H]5[C@H](C)OC(=O)[C@@]54CC[C@@H]32)C1 [C5, Acide 20 α-hydroxy-3 β-(N-méthylacétamido)-7-oxo-, γ-lactone pregn-5-èn-18-oïque] | 14 | – | –
CC(=O)N(C)[C@H]1CC[C@@]2(C)[C@@H](CC[C@@H]3[C@@H]2CC[C@]2(C)[C@@H]([C@H](C)N(C)C)CC[C@@H]32)C1 [C2, N-[(3 β, 5 α, 20S)-20-(diméthylamino)pregnan-3-yl]-N-méthyl-acétamide] | 24 | – | –
CC(=O)N(C)[C@H]1CC[C@@]2(C)C(=C[C@H](O)[C@H]3[C@@H]4CC[C@@H]5[C@H](C)OC(=O)[C@@]54CC[C@@H]32)C1 [C4, Acide 3-(acétylméthylamino)-7,20-dihydroxy-, γ-lactone, (3 β, 7 β ,20S)-pregn-5-èn-18-oïque] | 10 | > 50 | –
CC(=O)N(C)[C@H]1CC[C@@]2(C)C(=CC[C@H]3[C@@H]4CC[C@@H]5[C@H](C)N(C(C)=O)C[C@@]54CC[C@@H]32)C1 [C6, N-acétyl-3 β-(N-méthylacétamido)-norcon-5-énine] | 41 | > 50 | –
C[C@@H]([C@H]1CC[C@H]2[C@@H]3CC[C@H]4C[C@@H](O)CC[C@]4(C)[C@H]3CC[C@]12C)N(C)C [C1, 20-(diméthylamino)-, (3β,5α,20S)-pregnan-3-ol] | – | > 50 | 44
